# Calls of active or inactive are those of the source. No cut-off for these calls is given here.
# Assays:
# [1] = Induction of bleomycin-dependent DNA damage at 0.1 mg/ml after 1 hr
# [2] = Antineoplastic activity against Mus musculus (mouse) EACs transplanted in Swiss albino Mus musculus (mouse) assessed as decrease in WBC level at 5 mg/kg, ip administered 9 days measured on day 14 (reference value: 38.6 10^3/mm3); assay type: functional, Ehrlich; settings: route intraperitoneal
# [3] = Antineoplastic activity against Mus musculus (mouse) EACs transplanted in Swiss albino Mus musculus (mouse) assessed as increase in hemoglobin level at 5 mg/kg, ip administered 9 days measured on day 14 (reference value: 8.7 g%); assay type: functional, Ehrlich; settings: route intraperitoneal
# [4] = Antineoplastic activity against Mus musculus (mouse) EACs transplanted in Swiss albino mouse assessed as increase in life span at 20 mg/kg, ip after 9 days (reference value: 9.1%); assay type: functional, Ehrlich; settings: route intraperitoneal
# [5] = Antineoplastic activity against Mus musculus (mouse) EACs transplanted in Swiss albino Mus musculus (mouse) assessed as increase in hematocritis level at 5 mg/kg, ip administered 9 days measured on day 14 (reference value: 35.5 g%); assay type: functional, Ehrlich; settings: route intraperitoneal
# [6] = Antineoplastic activity against Mus musculus (mouse) EACs transplanted in Swiss albino mouse assessed as increase in life span at 5 mg/kg, ip after 9 days (reference value: 9.1%); assay type: functional, Ehrlich; settings: route intraperitoneal
# Ehrlich = assay: Antineoplastic activity against Mus musculus (mouse) EACs transplanted in Swiss albino mouse assessed as reduction in viable tumor cell count at 5 mg/kg, ip after 5 days by Giemsa staining; assay type: functional, organism-based; parameters: dose 5 mg/kg
SMILES,Activity [1],also measured
O=c1cc(-c2nnc(S)n2-c2ccc(F)cc2)c2c(=O)[nH]c(=O)[nH]c2[nH]1,Active,
O=c1[nH]cc(F)c(=O)[nH]1 [FLUOROURACIL],,Activity [2]: 13.8 ×10³ /mm3; Activity [3]: 10 g%; Activity [4]: 16.7%; Activity [5]: 42.3%
O=C(NNC(=S)Nc1ccc(F)cc1)c1cc(=O)[nH]c2[nH]c(=O)[nH]c(=O)c12,Active,
O=C(CCl)NNC(=O)c1cc(=O)[nH]c2[nH]c(=O)[nH]c(=O)c12,Active,
COC(=O)c1cc(=O)[nH]c2[nH]c(=O)[nH]c(=O)c12,Active,
O=C(CN1CCN(c2ccccc2)CC1)Sc1nnc(-c2cc(=O)[nH]c3[nH]c(=O)[nH]c(=O)c23)n1-c1ccc(F)cc1,Active,
O=C(CCl)Sc1nnc(-c2cc(=O)[nH]c3[nH]c(=O)[nH]c(=O)c23)n1-c1ccc(F)cc1,Active,
O=c1cc(-c2nnc(S)n2-c2ccccc2)c2c(=O)[nH]c(=O)[nH]c2[nH]1,Active,Activity [2]: 11.2 ×10³ /mm3; Activity [6]: 18.6%; Activity (Ehrlich): Active; Activity [3]: 11.7 g%; Activity [5]: 51.6%
COc1ccc(/C=N/NC(=O)c2cc(=O)[nH]c3[nH]c(=O)[nH]c(=O)c23)cc1,Active,
COc1ccc(N2CCN(CC(=O)NNC(=O)c3cc(=O)[nH]c4[nH]c(=O)[nH]c(=O)c34)CC2)cc1,Active,
O=C(NNC(=S)Nc1ccccc1)c1cc(=O)[nH]c2[nH]c(=O)[nH]c(=O)c12,Active,
NNC(=O)c1cc(=O)[nH]c2[nH]c(=O)[nH]c(=O)c12,Active,
O=C(CN1CCN(c2ccccc2)CC1)NNC(=O)c1cc(=O)[nH]c2[nH]c(=O)[nH]c(=O)c12,Active,
O=C(N/N=C/c1cccc([N+](=O)[O-])c1)c1cc(=O)[nH]c2[nH]c(=O)[nH]c(=O)c12,Active,

# From ChEMBL document CHEMBL3045865, “Synthesis and antitumor activity of new pyrido[2,3-d]pyrimidine derivatives” (2013)
